Values quoted from earlier work in US20240299384A1, “METHODS FOR TREATING PULMONARY HYPERTENSION IN PATIENTS WITH LEFT VENTRICULAR ASSIST DEVICE IMPLANTATION” (ACTELION PHARMACEUTICALS LTD, priority 2021, published 2024).

Columns and labels:
ET receptors = conditions: cited from earlier work
[1] = cited from earlier work

## NS(=O)(=O)Nc1ncnc(OCCOc2ncc(Br)cn2)c1-c1ccc(Br)cc1 [ACT-132577]
ET receptors
  affinity for the ET receptors relative to parent compound: lower affinity
[1]; after the first dose of macitentan
  time to peak plasma concentration: about 30 hours
[1]; humans
  half-life: approximately 48 hours
  plasma concentrations relative to macitentan: higher plasma concentrations
